From publication PMC8658909, “Organometallic small molecule kinase inhibitors – direct incorporation of Re and ^99mTc into Opaganib®” (Chemical Communications (Cambridge, England), 2021)

Target: T1, sphingosine kinase-2 (SK2) (Homo sapiens, UniProt Q9NRA0)
T1 construct: gene SPHK2
T1 sequence (Q9NRA0 1-654): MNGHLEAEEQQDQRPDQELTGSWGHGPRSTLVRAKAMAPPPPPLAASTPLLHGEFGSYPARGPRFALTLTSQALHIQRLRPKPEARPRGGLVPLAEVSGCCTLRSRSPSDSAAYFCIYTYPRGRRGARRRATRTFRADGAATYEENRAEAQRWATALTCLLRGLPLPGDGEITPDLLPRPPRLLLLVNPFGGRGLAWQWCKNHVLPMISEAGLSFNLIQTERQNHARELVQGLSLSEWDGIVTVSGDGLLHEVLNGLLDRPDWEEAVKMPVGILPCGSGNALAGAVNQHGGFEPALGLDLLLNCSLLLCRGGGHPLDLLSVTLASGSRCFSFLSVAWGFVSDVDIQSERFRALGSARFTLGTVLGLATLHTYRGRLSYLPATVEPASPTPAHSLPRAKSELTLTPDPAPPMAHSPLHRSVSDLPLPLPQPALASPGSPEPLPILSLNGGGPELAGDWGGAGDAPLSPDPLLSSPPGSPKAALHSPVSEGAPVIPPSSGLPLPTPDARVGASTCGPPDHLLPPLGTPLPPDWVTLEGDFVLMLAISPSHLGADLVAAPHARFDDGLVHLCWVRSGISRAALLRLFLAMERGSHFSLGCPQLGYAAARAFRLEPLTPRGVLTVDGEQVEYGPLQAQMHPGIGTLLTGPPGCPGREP
Assay: SK2 kinase inhibition IC50 (details in ESI)
Assay type: biochemical

Question: With `O=C(NCc1ccncc1)C12CC3CC(C1)CC(c1ccc(Cl)cc1)(C3)C2` [Opaganib®, Opaganib] as the compound, how does the IC50 read?
Answer: Its IC50 is 15.8 ± 3 µM.
